According to patent publication US20240285646A1, “METHODS AND COMPOSITIONS FOR LIPID FORMULATION OF LIPOPHILIC SMALL MOLECULE THERAPIES OF THE HETEROCYCLIC TYPE” (Neuronascent, Inc., priority 2021, published 2024):
Where “and” joins values, the source holds several entries; their conditions need not be identical. Equal values may be shown once.

Assays:
[1] = Phase 1A pharmacokinetics of oral NNI-362 in lipid-based formulation (Cohorts F and G); type: in vivo, human; conditions: for Extrap AUCinf / AUCinf / AUClast / Cmax / MRTinf / Tmax / t1/2 / AUC(0-inf) / AUC(0-t) / MRT inf / half-life: lipid formulation
Method: Exemplary Formulation F2 was prepared by slowly adding NNI-362 into a jar containing 100 mL of lipid-based MCT/Kolliphor EL/Beeswax (95/3/2% w/w) while mixing and then stirring until all powder is wet. The actual weight of NNI-362 was between 11.88 and 12.12 g to provide the nominal concentration of 120 mg/ml.
(§1) A Phase 1A, randomized, placebo-controlled, single and multiple dose, dose-escalation study was conducted to evaluate the safety, tolerability and pharmacokinetics of oral NNI-362 in healthy aged volunteers 50 to 72 years of age. Subjects were fasted prior to dose administration. The plasma concentrations of NNI-362 were determined by a validated bioanalytical method using liquid chromatography-tandem mass spectrometry (LC-MS/MS). The analytical range was 25.0-25000 pg/ml, with 0.0500 ml sample volumes. The stable label d5-NNI-362 was used as the internal standard for this assay.
(§2) NNI-362 was formulated in 1% (w/v) methylcellulose in sterile water as an oral suspension that was administered to Cohorts A-E. NNI-362 was administered in a lipid-based formulation (medium-chain triglycerides, Kolliphor EL and beeswax; 95/3/2%; NNI-362 added to provide 120 mg/ml) oral suspension) for Cohorts F and G.
(§3) PK data analysis was performed on the measurable plasma concentrations of NNI-362. The plasma concentration data were evaluated using Phoenix 64® WinNonlin® software (Version 8.3) to perform noncompartmental analysis. Nominal blood collection times were used in data analysis. The dose administered in dose group was entered into the program as mg/subject.
(§4) The following PK parameters were determined for NNI-362 plasma concentrations for each subject: observed maximal plasma concentration (Cmax), observed time to reach Cmax (Tmax), area under the plasma concentration time curve up to the last blood collection time (AUClast), and extrapolated to infinity (AUCinf), the percent of AUCinf that was extrapolated (% Extrap AUCinf), terminal elimination half-life (t1/2), and mean residence time to infinity (MRTinf). Terminal t1/2, AUCinf, MRTinf could not be calculated in some subjects due to limited data or poor fit (r<0.8) of the terminal phase of the plasma concentration and time curve. Extrapolation of more than 20% of the AUC may result in unreliable values for the terminal parameters.
The correlation coefficient for the terminal phase was determined using WinNonlin. Significant differences in selected pharmacokinetic parameters between the SAD and MAD dose groups of cohorts F and G were evaluated using the t-test (two tail, paired test; p<0.05).

Solubility of NNI-362 = type: physicochemical
[2] = Phase 1A pharmacokinetics of oral NNI-362 in 1% methylcellulose suspension (Cohorts A-E); type: in vivo, human
Method: as §1, §2, §3, §4

[3] = Cohort F, 120 mg oral, MAD, individual subjects
[4] = Cohort F, 120 mg oral, SAD, individual subjects
[5] = Cohort G, 240 mg oral, MAD, individual subjects
[6] = Cohort G, 240 mg oral, SAD, individual subjects
[7] = human, plasma, po, 120 mg, Cohort F, 120 mg oral, MAD, cohort mean
[8] = human, plasma, po, 120 mg, Cohort F, 120 mg oral, SAD, cohort mean
[9] = human, plasma, po, 120 mg, Cohort F, 120 mg oral, SAD, individual subjects
[10] = human, plasma, po, 240 mg, Cohort G, 240 mg oral, MAD, cohort mean
[11] = human, plasma, po, 240 mg, Cohort G, 240 mg oral, SAD, cohort mean
[12] = 60 mg oral, SAD, individual subjects
[13] = 120 mg oral, SAD, individual subjects
[14] = human, plasma, 60 mg oral, SAD, individual subjects
[15] = human, plasma, 120 mg oral, SAD, individual subjects

Extrap AUCinf ([1]; Cohort F, 120 mg oral, MAD, cohort mean): 30.0%
Tmax [1, 3]: 6 h and 2 h and 8 h
Extrap AUCinf ([1]; Cohort F, 120 mg oral, SAD, cohort mean): 43.8%
AUCinf [1, 4]: 0.8 ng·h/mL and 0.511 ng·h/mL
Extrap AUCinf [1, 4]: 36.9% and 29.9% and 64.5%
MRTinf [1, 4]: 10.2 h and 12.4 h
t1/2 [1, 4]: 6.15 h and 8.13 h
Extrap AUCinf ([1]; Cohort G, 240 mg oral, MAD, cohort mean): 34.4%
Tmax [1, 5]: 2 h and 6 h and 1 h
Extrap AUCinf ([1]; Cohort G, 240 mg oral, SAD, cohort mean): 28.3%
Extrap AUCinf [1, 6]: 14.4% and 51.1% and 19.3%
MRTinf [1, 6]: 7.76 h and 36.9 h and 5.56 h
Tmax [1, 6]: 2 h and 6 h and 1 h and 4 h
t1/2 [1, 6]: 2.6 h and 2.30 h
Concentration ([1]; Formulation F2, Cohort F, 120 mg single dose, Day 1, K3 EDTA human plasma, patient SRI-F-005, 0 h): < LLOQ
Concentration ([1]; Formulation F2, Cohort F, 120 mg single dose, Day 1, K3 EDTA human plasma, patient SRI-F-005, 12 h): < LLOQ
Concentration ([1]; Formulation F2, Cohort F, 120 mg single dose, Day 1, K3 EDTA human plasma, patient SRI-F-005, 24 h): < LLOQ
Tmax ([1]; human, plasma, oral, range over Cohorts F and G, SAD and MAD, read-out: Tmax values): 0.5 to 8 h
AUC(0-inf) [1, 7]: 3.43 ± 3.3 ng·h/mL
AUC(0-t) [1, 7]: 1.68 ng·h/mL
MRT inf [1, 7]: 19.2 ± 14.3 h
half-life [1, 7]: 12.2 ± 10.2 h
Cmax ([1]; human, plasma, po, 120 mg, Cohort F, 120 mg oral, MAD, cohort mean, read-out: Cmax): 0.129 ng/mL
Cmax ([1]; human, plasma, po, 120 mg, Cohort F, 120 mg oral, MAD, cohort mean, read-out: Cmax after multiple doses): 0.129 ± 0.0673 ng/mL
Tmax ([1]; human, plasma, po, 120 mg, Cohort F, 120 mg oral, MAD, cohort mean, read-out: Tmax): 4.33 h
AUC(0-inf) [1, 8]: 0.59 ± 0.184 ng·h/mL
AUC(0-t) [1, 8]: 0.559 ng·h/mL
MRT inf [1, 8]: 9.99 ± 2.55 h
half-life [1, 8]: 6.24 ± 1.84 h
Cmax ([1]; human, plasma, po, 120 mg, Cohort F, 120 mg oral, SAD, cohort mean, read-out: Cmax): 0.0924 ± 0.0606 ng/mL
Tmax ([1]; human, plasma, po, 120 mg, Cohort F, 120 mg oral, SAD, cohort mean, read-out: Tmax): 3.58 h
AUC(0-inf) [1, 9]: 0.458 ng·h/mL
MRT inf [1, 9]: 7.35 h
half-life [1, 9]: 4.45 h
AUC(0-inf) [1, 10]: 2.83 ± 1.96 ng·h/mL
AUC(0-t) [1, 10]: 2.04 ng·h/mL
MRT inf [1, 10]: 17.7 ± 13 h
half-life [1, 10]: 11.7 ± 8.94 h
Cmax ([1]; human, plasma, po, 240 mg, Cohort G, 240 mg oral, MAD, cohort mean, read-out: Cmax): 0.239 ± 0.23 ng/mL
Tmax ([1]; human, plasma, po, 240 mg, Cohort G, 240 mg oral, MAD, cohort mean, read-out: Tmax): 3.17 h
AUC(0-inf) [1, 11]: 1.32 ± 0.681 ng·h/mL
AUC(0-t) [1, 11]: 0.585 ng·h/mL
MRT inf [1, 11]: 16.7 ± 17.5 h
half-life [1, 11]: 2.58 ± 0.25 h
Cmax ([1]; human, plasma, po, 240 mg, Cohort G, 240 mg oral, SAD, cohort mean, read-out: Cmax): 0.099 ng/mL
Tmax ([1]; human, plasma, po, 240 mg, Cohort G, 240 mg oral, SAD, cohort mean, read-out: Tmax): 2.83 h
Cmax ([1]; human, plasma, po, 240 mg, Cohort G, 240 mg oral, SAD, cohort mean, read-out: mean Cmax): 0.099 ± 0.0639 ng/mL
half-life ([1]; human, plasma, po, 240 mg, Cohort G, 240 mg oral, SAD, individual subjects): 2.8 h
concentration at 0.5 h ([1]; oral, Formulation F2, Cohort F, 120 mg single dose, Day 1, K3 EDTA human plasma, patient SRI-F-005, 0.5 h): 0.0768 ng/mL
concentration at 1 h ([1]; oral, Formulation F2, Cohort F, 120 mg single dose, Day 1, K3 EDTA human plasma, patient SRI-F-005, 1 h): 0.0834 ng/mL
concentration at 2 h ([1]; oral, Formulation F2, Cohort F, 120 mg single dose, Day 1, K3 EDTA human plasma, patient SRI-F-005, 2 h): 0.0388 ng/mL
concentration at 4 h ([1]; oral, Formulation F2, Cohort F, 120 mg single dose, Day 1, K3 EDTA human plasma, patient SRI-F-005, 4 h): 0.0253 ng/mL
concentration at 6 h ([1]; oral, Formulation F2, Cohort F, 120 mg single dose, Day 1, K3 EDTA human plasma, patient SRI-F-005, 6 h): 0.0267 ng/mL
concentration at 8 h ([1]; oral, Formulation F2, Cohort F, 120 mg single dose, Day 1, K3 EDTA human plasma, patient SRI-F-005, 8 h): 0.0263 ng/mL
solubility (Solubility of NNI-362; common organic solvents): soluble in common organic solvents
solubility (Solubility of NNI-362; water/aqueous solutions): insoluble in water/aqueous solutions
Cmax ([2]; 20 mg oral, MAD, individual subjects): 0.0251 ng/mL
AUClast [2, 12]: 0.623 ng·h/mL
Cmax [2, 12]: 0.069 ng/mL and 0.0468 ng/mL and 0.0336 ng/mL
Extrap AUCinf [2, 12]: 24.1%
Tmax [2, 12]: 6 h and 24 h
Cmax [2, 13]: 0.0426 ng/mL and 0.0601 ng/mL
Extrap AUCinf [2, 13]: 54.5%
Tmax [2, 13]: 6 h and 2 h
plasma drug concentrations ([2]; Cohort B, 20 mg oral, two subjects, one plasma sample each): > 0.025 ng/mL
AUC(0-inf) [2, 14]: 0.622 ng·h/mL
MRT inf [2, 14]: 9.2 h
half-life [2, 14]: 4.09 h
AUC(0-inf) [2, 15]: 0.908 ng·h/mL
MRT inf [2, 15]: 5.5 h
half-life [2, 15]: 13.7 h
Cmax ([2]; human, plasma, po, 20 mg, 20 mg oral, MAD, individual subjects, read-out: Cmax): 0.0151 ng/mL
Tmax ([2]; human, plasma, po, 20 mg, 20 mg oral, MAD, individual subjects, read-out: Tmax): 12 h
AUC(0-t) ([2]; human, plasma, po, 60 mg, 60 mg oral, SAD, individual subjects): 0.473 ng·h/mL
AUC(0-t) ([2]; human, plasma, po, 120 mg, 120 mg oral, SAD, individual subjects): 0.414 ng·h/mL
Cmax ([2]; human, plasma, po, 120 mg, 120 mg oral, SAD, individual subjects, read-out: Cmax): 0.037 ng/mL
SMILES: CCOc1ccccc1NC(=S)N1CCCN(c2nc3cc(C)c(C)cc3cc2C#N)CC1 [NNI-362]
AUCinf [1, 3]: 1.28 ng·h/mL and 3.74 ng·h/mL and 8.95 ng·h/mL and 0.719 ng·h/mL and 2.44 ng·h/mL
AUClast [1, 3]: 1.15 ng·h/mL and 2.68 ng·h/mL and 3.8 ng·h/mL and 0.525 ng·h/mL and 1.77 ng·h/mL and 0.179 ng·h/mL
Cmax [1, 3]: 0.193 ng/mL and 0.144 ng/mL and 0.208 ng/mL and 0.0638 ng/mL and 0.126 ng/mL and 0.0404 ng/mL
Extrap AUCinf [1, 3]: 9.78% and 28.4% and 57.5% and 26.9% and 27.7%
MRTinf [1, 3]: 6.68 h and 19.3 h and 42.9 h and 9.7 h and 17.6 h
AUClast [1, 4]: 0.555 ng·h/mL and 1.21 ng·h/mL and 0.289 ng·h/mL and 0.561 ng·h/mL and 0.182 ng·h/mL
Cmax [1, 4]: 0.101 ng/mL and 0.208 ng/mL and 0.0484 ng/mL and 0.0834 ng/mL and 0.0701 ng/mL and 0.0435 ng/mL
Tmax [1, 4]: 6 h and 8 h and 2 h and 1 h and 4 h and 0.5 h
AUCinf [1, 5]: 4.52 ng·h/mL and 0.426 ng·h/mL and 4.23 ng·h/mL and 3.98 ng·h/mL and 0.975 ng·h/mL
AUClast [1, 5]: 1.99 ng·h/mL and 0.235 ng·h/mL and 4 ng·h/mL and 2.61 ng·h/mL and 2.85 ng·h/mL and 0.569 ng·h/mL
Cmax [1, 5]: 0.124 ng/mL and 0.059 ng/mL and 0.679 ng/mL and 0.221 ng/mL and 0.267 ng/mL and 0.0822 ng/mL
Extrap AUCinf [1, 5]: 54.8% and 43.9% and 5.10% and 27.7% and 40.5%
MRTinf [1, 5]: 39.5 h and 7.10 h and 9.51 h and 18.8 h and 13.5 h
t1/2 [1, 5]: 26.2 h and 4.29 h and 5.10 h and 13.5 h and 9.24 h
AUCinf [1, 6]: 0.79 ng·h/mL and 2.09 ng·h/mL and 1.09 ng·h/mL
AUClast [1, 6]: 0.103 ng·h/mL and 0.677 ng·h/mL and 0.243 ng·h/mL and 1.02 ng·h/mL and 0.88 ng·h/mL
Cmax [1, 6]: 0.0523 ng/mL and 0.0316 ng/mL and 0.13 ng/mL and 0.0857 ng/mL and 0.0846 ng/mL and 0.21 ng/mL
plasma concentrations of NNI-362 ([2]; Cohort A, single oral dose of 10 mg per subject, LLOQ 25 pg/ml): no plasma samples from these subjects contained quantifiable concentrations
